# Laboratory results taken from patent US9834514B2, “Antibiotic sensitivity-restoring and photosensitive agents” (New Mexico Tech Research Foundation, priority 2015, dated 2017).
# How the values were obtained:
# [1] = test system: S. aureus (ATCC No. 29213); experiment: Light-activated killing, colony counts; format: cell-based; details: for Dark Toxicity: no light; for Light Toxicity: white light 2 minutes
# Method: (§1) Dose-dependent effects of treating bacteria with compound 1 and irradiation with white light were assessed by treating 10^8 CFU/mL of cells with compound 1, followed by irradiation with white light for 2 minutes. Compound 1 was added at a specific concentration to 1 mL of a 10^8 CFU/mL suspension of the respective bacterial cells, and the cells were incubated at 37° C. for approximately 45 minutes on a rotary shaker at 150 rpm. 0.5 mL of the cell suspension was removed and placed into the wells of a sterile ceramic drop plate, and then the cells were irradiated with white light from a Lumacare™ LC 122A light source for 2 minutes at a distance of approximately 3 cm. The time and distance of the light application delivered about 85 J/cm^2 of 400-700 nm light to the sample. After being irradiated, ten-fold dilutions were made of each cell sample. The dilutions were drip-streaked onto a tryptic soy agar (TSA) plate and incubated at 37° C. for 18-24 hours. Enumeration of bacteria was determined from the dilution, which produced a drip-streak containing approximately 30-300 colonies. After counting the colonies, the CFU/mL was calculated by applying the respective dilution factor and a factor of 100 to account for the 10 μL of sample taken. Appropriate controls were prepared, including cells with no treatment, cells with only compound 1 added, and cells only treated with light.
# The error bars in FIG. 10 represent the variations between three replicate determinations.
# VRE (ATCC No. 51299) = experiment: Light-activated killing, colony counts; format: cell-based, Enterococcus faecalis; details: for Dark Toxicity: no light; for Light Toxicity: white light 2 minutes
# Method: as §1
# The error bars in FIG. 11 represent the variations between three replicate determinations.
# [2] = test system: S. pyogenes (ATCC No. 8133); experiment: Light-activated killing, colony counts; format: cell-based; details: for Dark Toxicity: no light; for Light Toxicity: white light 2 minutes
# Method: as §1
# The error bars in FIG. 12 represent the variations between three replicate determinations.
# [3] = test system: S. mutans (Ward's 85W 2357); experiment: Light-activated killing, colony counts; format: cell-based; details: for Dark Toxicity: no light; for Light Toxicity: white light 2 minutes
# Method: as §1
# (§2) The error bars in FIG. 13 represent the variations between three replicate determinations.
# [4] = test system: S. mutans (Ward's 85W 2357); experiment: MIC against S. mutans; format: cell-based; details: Streptococcus mutans; compound alone
# Excerpt: as §2
# A. baumannii = experiment: Checkerboard assay (FICI); format: cell-based; details: with PMB
# Method: (§3) Another method for determining synergy is a checkerboard assay. A checkerboard assay is performed whereby one of the test compounds is serially diluted horizontally across a plate, while the other test compound is serially diluted vertically down the plate. The perpendicular serial dilutions result in combinations of the compounds that range in concentrations from the highest to the lowest of each compound added. In the present study, the checkerboard assay method was adjusted by serially diluting one of the test compounds horizontally and adding the second drug to each well at a concentration of ¼ MIC. The 24-well microtiter plate was then incubated at 37° C. for 18-24 hours on a rotary shaker incubator at 150 rpm. After incubation, MTT reagent was added to each well at a 10% sample volume. Synergy was determined on the lowest concentration of the combined drugs, which produced no purple coloring. Calculation of synergy was determined by the Fractional Inhibitory Concentration Index (FICI): FICI=([Drug 1]Synergy/[Drug1]MIC)+([Drug 2]Synergy/[Drug 2]MIC). FICI≦0.5 is an indication of synergy.
# (§4) TABLE 17 details the obtained FICI values for compound 1 in combination with varying antibiotics against MRSA, A. baumannii, and E. coli.
# E. coli [5] = experiment: Checkerboard assay (FICI); format: cell-based; details: with PMB
# Method: as §3, §4
# E. coli [6] = experiment: MIC against E. coli; format: cell-based; details: Escherichia coli
# Excerpt: TABLE 18 details the obtained MIC values for cells treated with compound 1, light, PMB, and Polymyxin E (PME) against E. coli.
# MRSA (ATCC No. BAA-44) = experiment: Potentiation of antibiotic activity with 10 μM compound 1 (CFU/mL); format: cell-based, S. aureus
# Method: The MICs for the antibiotics in the absence of compound 1 were calculated by adjusting the cells to 5×10^5 CFU/mL with McFarland Turbidity Standard (0.5) followed by the addition of an antibiotic. The cells were then incubated at 37° C. for 18 hours on a rotary shaking incubator at 100 rpm. Finally, MTT was added to the cells to assess viability.
# To assess the potentiation of antibiotic activity, the cells were adjusted to 5×10^5 CFU/mL with McFarland Turbidity Standard (0.5). Compound 1 was then added at 10 μM, and the cells were incubated at 37° C. for 45 minutes. The desired antibiotic was then added at three sub-inhibitory concentrations, and the cells were incubated at 37° C. for 18 hours on a rotary shaking incubator at 100 rpm. The samples were then diluted ten-fold, drip streaked onto a TSA plate, and incubated for 18 hours at 37° C. The resulting cell colonies were counted, and the CFU/mL values were calculated.
# E. coli [7] = experiment: Resensitization to antibiotics (log reduction, TABLE 29); format: cell-based; details: compound 1 μM
# S. aureus ATCC 29213 = experiment: as above; format: cell-based
# [8] = test system: S. mutans Ward's 85W 2357; experiment: as above; format: cell-based; details: compound 1 μM; Light (2 min)
# [9] = Stability of the formulation at 40° C. (dynamic light scattering); format: physicochemical; details: in DMSO
# Method: The stability of the formulation was determined using dynamic light scattering (DLS) to measure the mean size and standard deviation, both of which remained consistent. The experiments were repeated after the indicated periods, and the outcome of compound 1 photodynamic therapy was essentially the same in terms of cell killing.
smiles,measurement,setting,value
Clc1ccc(/C=C/c2[nH]c3ccccc3c2/C=C/c2ccc(Cl)cc2)cc1 [Compound 1],Dark Toxicity,[1]; 0.1 μM,1.63 × 10^8 ± 1.72 × 10^7 CFU/mL
same,Light Toxicity,[1]; 0.1 μM,1.20 × 10^5 ± 5.12 × 10^4 CFU/mL
same,Dark Toxicity,[1]; 0.5 μM,2.67 × 10^6 ± 2.10 × 10^6 CFU/mL
same,Light Toxicity,[1]; 0.5 μM,1.60 × 10^3 ± 1.44 × 10^3 CFU/mL
same,Dark Toxicity,[1]; 1.0 μM,1.34 × 10^6 ± 3.04 × 10^5 CFU/mL
same,Light Toxicity,[1]; 1.0 μM,None detected (<100 CFU/mL)
same,Dark Toxicity,[1]; 5.1 μM,7.13 × 10^4 ± 1.80 × 10^4 CFU/mL
same,Light Toxicity,[1]; 5.1 μM,None detected (<100 CFU/mL)
same,Dark Toxicity,VRE (ATCC No. 51299); 0.1 μM,6.50 × 10^8 ± 5.40 × 10^8 CFU/mL
same,Light Toxicity,VRE (ATCC No. 51299); 0.1 μM,7.00 × 10^2 ± 8.19 × 10^2 CFU/mL
same,Dark Toxicity,VRE (ATCC No. 51299); 0.5 μM,6.50 × 10^8 ± 1.32 × 10^8 CFU/mL
same,Light Toxicity,VRE (ATCC No. 51299); 0.5 μM,2.67 × 10^2 ± 4.62 × 10^2 CFU/mL
same,Dark Toxicity,VRE (ATCC No. 51299); 1.0 μM,6.20 × 10^8 ± 2.62 × 10^8 CFU/mL
same,Light Toxicity,VRE (ATCC No. 51299); 1.0 μM,None detected (<100 CFU/mL)
same,Dark Toxicity,VRE (ATCC No. 51299); 5.0 μM,4.55 × 10^5 ± 8.87 × 10^5 CFU/mL
same,Light Toxicity,VRE (ATCC No. 51299); 5.0 μM,None detected (<100 CFU/mL)
same,Dark Toxicity,[2]; 0.1 μM,7.13 × 10^6 ± 1.10 × 10^6 CFU/mL
same,Light Toxicity,[2]; 0.1 μM,None Detected (<100 CFU/mL)
same,Dark Toxicity,[2]; 0.5 μM,1.40 × 10^6 ± 7.05 × 10^5 CFU/mL
same,Light Toxicity,[2]; 0.5 μM,None Detected (<100 CFU/mL)
same,Dark Toxicity,[2]; 1.0 μM,4.13 × 10^6 ± 9.07 × 10^5 CFU/mL
same,Light Toxicity,[2]; 1.0 μM,None Detected (<100 CFU/mL)
same,Dark Toxicity,[2]; 5.0 μM,5.01 × 10^5 ± 4.07 × 10^5 CFU/mL
same,Light Toxicity,[2]; 5.0 μM,None Detected (<100 CFU/mL)
same,Dark Toxicity,[3]; 0.1 μM,2.6 × 10^8 ± 5.57 × 10^7 CFU/mL
same,Light Toxicity,[3]; 0.1 μM,2.35 × 10^5 ± 3.50 × 10^5 CFU/mL
same,Dark Toxicity,[3]; 0.5 μM,1.44 × 10^8 ± 4.46 × 10^7 CFU/mL
same,Light Toxicity,[3]; 0.5 μM,2.33 × 10^3 ± 1.54 × 10^3 CFU/mL
same,Dark Toxicity,[3]; 1.0 μM,2.1 × 10^5 ± 1.13 × 10^5 CFU/mL
same,Light Toxicity,[3]; 1.0 μM,None Detected (<100 CFU/mL)
same,Dark Toxicity,[3]; 5.0 μM,5.5 × 10^4 ± 2.48 × 10^4 CFU/mL
same,Light Toxicity,[3]; 5.0 μM,None Detected (<100 CFU/mL)
same,MIC,[4],50 to 100 µM
same,FIC Index,A. baumannii,0.1
same,FIC Index,E. coli [5],0.2
same,MIC,E. coli [6],> 200 µg/mL
same,potentiation of tetracycline (CFU/mL),MRSA (ATCC No. BAA-44); FIG. 18,tetracycline was more efficacious in cell killing in the presence of compound 1
same,potentiation of doxycycline (CFU/mL),MRSA (ATCC No. BAA-44); FIG. 19,doxycycline was more efficacious in cell killing in the presence of compound 1
same,potentiation of norfloxacin (CFU/mL),MRSA (ATCC No. BAA-44); FIG. 20,norfloxacin was more efficacious in cell killing in the presence of compound 1
same,potentiation of dicloxicillin (CFU/mL),MRSA (ATCC No. BAA-44); FIG. 21,dicloxicillin was more efficacious in cell killing in the presence of compound 1
same,potentiation of oxacillin (CFU/mL),MRSA (ATCC No. BAA-44); FIG. 22,oxacillin was more efficacious in cell killing in the presence of compound 1
same,potentiation of penicillin G (CFU/mL),MRSA (ATCC No. BAA-44); FIG. 23,penicillin G was more efficacious in cell killing in the presence of compound 1
same,potentiation of tobramycin (CFU/mL),MRSA (ATCC No. BAA-44); FIG. 24,tobramycin was more efficacious in cell killing in the presence of compound 1
same,potentiation of vancomycin (CFU/mL),MRSA (ATCC No. BAA-44); FIG. 25,vancomycin was more efficacious in cell killing in the presence of compound 1
same,Log Reduction,E. coli [7]; PMB (0.1 μg/mL),4
same,Log Reduction,E. coli [7]; PMB (0.1 μg/mL) + Light (2 min),7
same,Log Reduction,"S. aureus ATCC 29213; compound 1 μM, Light (2 min)",6
same,Log Reduction,"S. aureus ATCC 29213; compound 5 μM, Norfloxacin (0.5 μg/mL)",6
same,Log Reduction,"S. aureus ATCC 29213; compound 5 μM, Tetracycline (0.1 μg/mL)",5
same,Log Reduction,[8],5-6
same,Stability at 40° C.,[9],>2 months
